Data as given in PubChem BioAssay AID463136 (University of Pittsburgh Molecular Library Screening Center, 2010).
Results filed as inconclusive are left out. Activity calls are given as the source filed them. No rule for the calls is given here.

Assays:
[1] = test system: HCS imaging, dynein-mediated cargo transport inhibition; experiment: blockers of dynein-driven microtubule transport – imaging, high-content imaging, dose response (AID 463136);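 also: mouse mammary adenocarcinoma 3617.4 cells expressing GFP-tagged rat glucocorticoid receptor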; as to inhibition: reference of the scale not given here
[2] = as above; settings: HCS imaging, dynein-mediated cargo transport inhibition; inhibition at max concentration; at 50 µM; stronger effect = higher value

Row | SMILES | IC50 [1] | inhibition [2]
1 | N#Cc1c(C(F)(F)F)cc(-c2ccccc2)nc1SCc1nc(N)nc(N2CCOCC2)n1 | > 50 µM (inactive) | 8.72%
2 | O=C(NCc1cccnc1)/C(=C/c1ccc(-c2cccc(Cl)c2)o1)S(=O)(=O)c1ccccc1 | > 50 µM (inactive) | 42%
3 | CCCNC(=O)c1nnsc1S(=O)c1ccc(Cl)cc1 (stereo unspecified) | 7.07 µM | 77%
4 | COc1ccc(-n2ncc(Cl)c(Cl)c2=O)cc1 | 21.6 µM | 84.7%
5 | COc1ccc(N(C(=O)CCl)C(C(=O)NC2CCCCC2)c2cccnc2)cc1 (stereo unspecified) | 13.3 µM | 85.5%
6 | COc1cc(NC(=O)Cn2ncc(Cl)c(Cl)c2=O)c(C)cc1[N+](=O)[O-] | 7.75 µM | 64.6%
7 | CN1C(=O)NC(=O)/C(=C/c2ccc([N+](=O)[O-])s2)C1=O | 12 µM | 84.7%
8 | CC(C)(C)C(=O)/C(=C/c1ccncc1)n1cncn1 | 8.77 µM | 82.3%
9 | CC(=O)Oc1ccc(OC(C)=O)c(SCCCCCCl)c1 | 17.6 µM | 83.5%
10 | N=c1oc2c3c4c(cc2cc1C(=O)Nc1ccccc1)CCCN4CCC3 | > 50 µM (inactive) | 99%
11 | O=[N+]([O-])c1cc(S(=O)(=O)N2CCCCCC2)ccc1F | 33.7 µM | 87.3%
12 | COC(=O)c1cc(NC(=O)c2ccccc2)c(=O)oc1/C=C/Nc1ccc(Oc2ccccc2)cc1 | 1.16 µM | 102%
13 | CCn1c(SCC(=O)N2CCOCC2)nc2oc3c(Cl)cc(Cl)cc3c(=O)c2c1=O | 33 µM | 78.9%
14 | COCCN(C(=O)CCl)C(C(=O)NC1CCCCC1)c1ccccc1C (stereo unspecified) | 24.8 µM | 79.5%
15 | N#CC(C#N)=C1C=C2C=C(N3CCCCCC3)CCC2CC1 (stereo unspecified) | 36.2 µM | 99.2%
16 | O=C(NCc1cccnc1)/C(=C\c1ccc(-c2ccc(Cl)c(Cl)c2)o1)S(=O)(=O)c1ccccc1 | > 50 µM (inactive) | 9.8%
17 | CC(=O)OCCNc1cc(SCc2ccco2)c2nonc2c1[N+](=O)[O-] | 42.1 µM | 59.9%
18 | O=c1[nH]sc2cc(F)ccc12 | 12 µM | 91.3%
19 | Cc1cccc(N2C(=O)NC(=O)/C(=C\C=C\c3ccco3)C2=O)c1 | 33.4 µM | 89.4%
20 | O=[N+]([O-])c1ccc(N/N=C/c2ccc[nH]2)cc1 | 18 µM | 148%
21 | Cc1ccc(C2=NN(C(=O)CCl)C(c3cccs3)C2)o1 (stereo unspecified) | 8.74 µM | 80.3%

Row | SMILES | IC50 [1] | inhibition [2]
22 | COc1ccc(/C=C\c2nc(=O)c3ccccc3o2)cc1 | 6.91 µM | 86.9%
23 | Cc1nc([N+](=O)[O-])c(Br)n1Cc1ccccc1 | 6.35 µM | 84.8%
24 | CCOC(=O)C1=C(SCC)c2cc3c(n2C1=O)CCCC3 | > 50 µM (inactive) | 37.7%
25 | Cn1cc([N+](=O)[O-])c(C(=O)Nc2cc(Oc3ccccc3)cc([N+](=O)[O-])c2)n1 | > 50 µM (inactive) | 45.9%
26 | O=c1cc(-c2c(F)c(F)c(F)c(F)c2F)oc2c(F)c(F)c(F)c(F)c12 | 27.7 µM | 92%
27 | Cc1ccc(/C=C2\CCC3=C2OC(N)=C(C#N)C3c2ccc(C)cc2)cc1 (stereo unspecified) | 3.23 µM | 111%
28 | Cc1ccc(CN=Cc2[nH]c3ccc(Br)c(Cl)c3c2O)cc1 | 5.14 µM | 99.2%
29 | O=[N+]([O-])c1c(NCCCO)cc(Sc2ccc(Cl)cc2)c2nonc12 | > 50 µM (inactive) | 30.9%
30 | Cc1ccc2nc(Cl)c3nnnn3c2c1 | 9.43 µM | 64%
31 | CC(C)(C)c1cnnn1-c1ccc(C(=O)CCl)cc1 | 6.44 µM | 67.1%
32 | COc1ccc(OC)c(N2C(=O)NC(=O)/C(=C/c3ccc([N+](=O)[O-])s3)C2=O)c1 | 12.5 µM | 86.6%
33 | CCOC(=O)C(=Cc1ccc(-n2cncn2)cc1)C(=O)OCC | 33.7 µM | 89.8%
34 | O=c1c(Cl)c(Cl)cnn1Cc1nnc(-c2ccc(Cl)cc2)o1 | 22.9 µM | 69.6%
35 | CN(C)CC(C(=O)c1ccccc1)c1ccccc1 (stereo unspecified) | 8.37 µM | 70.5%
36 | COC(=O)c1cc(=O)n(Cc2ccc(F)cc2)c(=Nc2ccccc2)s1 | > 50 µM (inactive) | 15.5%
37 | N#C/C(=C\c1cccs1)C(=O)c1ccccc1Cl | > 50 µM (inactive) | 63.4%
38 | Cc1nnc(NC(=O)c2sc3nc(-c4cccs4)cc(C(F)(F)F)c3c2N)s1 | 2.21 µM | 154%
39 | Nc1nc(Sc2c([N+](=O)[O-])cc(C(F)(F)F)cc2[N+](=O)[O-])n[nH]1 | 21.9 µM | 44.1%
40 | CN1CCN(C2=C(Cl)C(=O)C(c3cnc(N4CCCCC4)s3)=C(Cl)C2=O)CC1 | 33.3 µM | 94.7%
41 | COc1ccc(CN(CCC(c2ccccc2)c2ccc(OC(C)C)cc2)C(=O)CCl)cc1OC (stereo unspecified) | > 50 µM (inactive) | 34.9%
42 | Cc1ccc(-n2nnnc2CCl)cc1 | 12.2 µM | 80%

Row | SMILES | IC50 [1] | inhibition [2]
43 | Cc1cc(-c2n[nH]c(=S)n2/N=C/C(Br)=C/c2ccccc2)n[nH]1 | 16.5 µM | 82.9%
44 | O=C1C=CC(=O)N1CCNc1ncc(C(F)(F)F)cc1Cl | > 50 µM (inactive) | 21.2%
45 | COc1ccc(-n2cccc2/C=C/[N+](=O)[O-])cc1 | > 50 µM (inactive) | 14.4%
46 | Cc1cc(C)cc(Cn2ncc(Cl)c(Cl)c2=O)c1 | 22.7 µM | 63.9%
47 | COc1ccccc1NS(=O)(=O)c1cc([N+](=O)[O-])ccc1N/N=C/c1c(C)[nH]c2ccccc12 | > 50 µM (inactive) | 16.5%
48 | CC1CCc2cc(F)ccc2N1C(=O)CCl (stereo unspecified) | 10.5 µM | 77.7%
49 | O=C(/C=C/c1ccncc1)c1ccc2c(c1)OCCO2 | 17.1 µM | 72.4%
50 | O=C(CN(c1cccc(C(F)(F)F)c1)S(=O)(=O)c1ccc(Cl)c([N+](=O)[O-])c1)NCc1ccccc1 | > 50 µM (inactive) | 15.7%
51 | CC(C)n1c(O)c(C2c3cc(Cl)ccc3Oc3[nH]c(=O)n(C(C)C)c(=O)c32)c(=O)[nH]c1=O (stereo unspecified) | 13.6 µM | 64.2%
52 | COc1ccc(-n2c(C)cc(C(=O)CCl)c2C)cc1 | 13.1 µM | 80.4%
53 | CCC(=O)Nc1cccc(C(=O)/C=C/c2ccc(F)cc2)c1 | 34.1 µM | 74.9%
54 | O=C1C(Cl)=C(N2CCCCC2)C(=O)C(Cl)=C1c1cnc(N2CCCCC2)s1 | 33.2 µM | 94.6%
55 | Cc1cc(C)c(S(=O)(=O)ON2C(=O)c3ccccc3C2=O)cc1C | > 50 µM (inactive) | 10.5%
56 | CC(=O)Nc1c([N+](=O)[O-])cc(C)c(Cl)c1[N+](=O)[O-] | 11.2 µM | 88.8%
57 | CCOC(=O)N1C/C(=C\c2ccccc2)C(=O)/C(=C/c2ccccc2)C1 | 32.8 µM | 78.7%
58 | C=CCSc1nnc(C)c(/C=C/Nc2ccc(Cl)cc2)n1 | 27.7 µM | 125%
59 | CC(=O)Nc1sc(/C(C#N)=C/c2ccc(Cl)c(Cl)c2)nc1-c1ccc(C)cc1 | 0.491 µM | 102%
60 | Cn1cc(C(=O)CCl)c2ccccc21 | 22.5 µM | 75%
61 | O=C1C(Cl)=C(Nc2ccc3cn[nH]c3c2)C(=O)c2ccccc21 | 18.2 µM | 66.6%
62 | Cn1c(=O)c(NCCO)c2c3c(cccc31)C(=O)c1ccccc1-2 | > 50 µM (inactive) | -13.2%
63 | Cn1c(=O)c([N+](=O)[O-])c(Oc2ccccc2)c2ccccc21 | > 50 µM (inactive) | 15.3%

Row | SMILES | IC50 [1] | inhibition [2]
64 | Cc1nn(C)c(C(=O)Sc2cccc(Cl)c2)c1[N+](=O)[O-] | > 50 µM (inactive) | 10.5%
65 | COc1ccc(OC)c(N2C(=O)NC(=O)/C(=C\c3ccc([N+](=O)[O-])s3)C2=O)c1 | 11.9 µM | 86.7%
66 | Cc1c(C#N)c(NC(=O)CCl)n(Cc2cccs2)c1C | 24.7 µM | 69.2%
67 | O=C(CCl)N(c1ccccc1)c1ccccc1 | 14.2 µM | 61.3%
68 | CCCCNC1C(CC)C(CCC)C(C#N)(C#N)C1(C#N)C#N (stereo unspecified) | 21.7 µM | 75.2%
69 | COc1cccc(N2C(=O)NC(=O)/C(=C/c3ccc([N+](=O)[O-])s3)C2=O)c1 | 10.7 µM | 87.8%
70 | CCN1C(=O)C(=C/C=C/c2ccco2)C(=O)N(CC)C1=S | 41.3 µM | 75.1%
71 | C=C1C(=O)O[C@H]2C[C@@H](C)[C@@H]3C=CC(=O)[C@@]3(C)C[C@H]12 | 8.71 µM | 89.6%
72 | COC(=O)c1cc(=O)n(CCc2ccc(OC)cc2)c(=Nc2ccc(F)c(Cl)c2)s1 | > 50 µM (inactive) | 13.5%
73 | CC(C)Cn1c([N+](=O)[O-])nc2c1c(=O)[nH]c(=O)n2C | 5.26 µM | 83.8%
74 | O=C1NC(=O)N(c2ccccc2)C(=O)/C1=C\C=C\c1ccccc1 | 28.8 µM | 80.9%
75 | Cc1ccccc1-n1nnnc1Sc1nnnn1-c1ccccc1 | 17.6 µM | 87.8%
76 | C=C1C(=O)[C@@]23[C@H](O)C[C@@H]4C(C)(C)CC[C@H](O)[C@]4(C)[C@@H]2C[C@H](O)[C@@H]1[C@H]3O | 9.84 µM | 54.9%
77 | COc1ccc(CN=Cc2[nH]c3ccc(Br)c(Cl)c3c2O)cc1 | 28.5 µM | 93.4%
78 | O=C1C=CC2C(c3ccc4c(c3)OCO4)CC1N2Cc1ccccc1 (stereo unspecified) | > 50 µM (inactive) | 13%
79 | O=C1C=C(NC2=CC3OC(c4ccccc4)OCC3OC2=O)CCC1 (stereo unspecified) | > 50 µM (inactive) | 13%
80 | C=CS(=O)c1sc(Cl)c(N2CCOCC2)c1[N+](=O)[O-] (stereo unspecified) | 45.6 µM | 57.1%
81 | O=C1/C(=C/c2ccc(N3CCOCC3)o2)SC(=Nc2ccccc2)N1CCc1c[nH]c2ccccc12 | 1.2 µM | 95.6%
82 | Cc1ccc2nc(/C(C#N)=C\c3ccc(N4CCOCC4)o3)[nH]c2c1 | 13.1 µM | 80.2%
83 | O=S(=O)(c1ccccc1)c1ncc(C(F)(F)F)cc1Cl | 8.14 µM | 79.3%
